Four compounds from article PMC8231556, “Inhibiting Endothelial Cell Function in Normal and Tumor Angiogenesis Using BMP Type I Receptor Macrocyclic Kinase Inhibitors” (Cancers, 2021) can be followed below.

Series [1] deals with VEGF-induced DLL4 and NR4 A1 mRNA expression. Kind of series: RT-qPCR of VEGF-induced DLL4 and NR4A1 mRNA in HUVECs. Type of series: cell-based, human. The conditions noted are these: 0.5 µM compound, VEGF 40 ng/mL. Here is the method:
EA.hy926 cells or HUVECs were seeded in 6-well plates and cultured until they reached 80% confluence. The medium was replaced with a serum-free medium for a 4 h starvation. For EA.hy926 cells, the compounds were added at a final concentration of 0.5 μM for 30 min, followed by BMP9 (1 ng/mL), TGF-β2 (1 ng/mL), or vehicle control addition and cultured for another 3 h before the cells were harvested. To investigate VEGF-induced cellular response, HUVECs were exposed to VEGF (40 ng/mL) for 1 h after 30 min pre-treatment with the compounds.
After samples were collected, total RNA was isolated and purified using the NucleoSpin RNA II kit (740955, BIOKE, Leiden, the Netherlands), following the manufacturer’s instructions. Then, the mRNA was used as a template to synthesize cDNA by performing reverse transcription with the RevertAid First Strand cDNA Synthesis Kit (K1621, ThermoFisher Scientific). Gene expression levels were determined by RT-qPCR analysis using the GoTaq qPCR Master Mix (A6001, Promega, Madison, WI, USA) and normalized to GAPDH expression. All the experiments were repeated three times, and results from three biologically independent experiments are shown.
Background: Quantitative PCR measures a nucleic acid by following its amplification.

For series [2], the system named is EA.hy926 cells. Kind of series: MTS assay. Type of series: cell-based, human. To be noted: 0.5 μM, day 1, 2 and 3. Here is the method: The MTS assay was used to measure the metabolic activity and viability of the cells. Around 5 × 10^3 EA.hy926 cells were seeded and cultured overnight in a 96-well plate and then cultured in the normal growth medium, which contained the indicated compounds and ligands. The MTS tetrazolium was measured according to the manufacturer’s protocol using an MTS Assay Kit (G3580, Promega). In brief, after exposing the cells in set conditions for 1, 2, and 3 days, 20 µL of MTS reagent was added to 100 μL cell growth medium per well and incubated for 4 h at 37 °C. Thereafter, absorbance at 490 nm was measured using a PerkinElmer […]. All the experiments were repeated at least three times, and representative experiments are shown.

Series [3] concerns the target T1, PDK1 (Homo sapiens, UniProt O15530).
T1 construct: purchased ProQinase (33PanQinase Activity Assay)
T1 sequence (O15530 1-556): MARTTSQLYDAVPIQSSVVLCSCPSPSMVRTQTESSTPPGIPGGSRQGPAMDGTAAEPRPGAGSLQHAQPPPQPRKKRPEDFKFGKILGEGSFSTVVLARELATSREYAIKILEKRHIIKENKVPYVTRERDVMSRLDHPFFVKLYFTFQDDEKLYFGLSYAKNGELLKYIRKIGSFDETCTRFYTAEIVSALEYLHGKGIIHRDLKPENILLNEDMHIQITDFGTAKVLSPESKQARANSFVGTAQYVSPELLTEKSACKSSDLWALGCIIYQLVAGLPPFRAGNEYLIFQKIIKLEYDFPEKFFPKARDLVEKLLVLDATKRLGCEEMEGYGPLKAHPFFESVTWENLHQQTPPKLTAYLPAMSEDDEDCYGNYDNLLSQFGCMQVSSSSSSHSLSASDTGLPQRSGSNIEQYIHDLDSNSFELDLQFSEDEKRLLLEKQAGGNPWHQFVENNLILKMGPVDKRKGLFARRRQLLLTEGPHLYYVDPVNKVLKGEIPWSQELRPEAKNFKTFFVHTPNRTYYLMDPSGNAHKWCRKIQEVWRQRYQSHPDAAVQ
Description: radiometric kinase profiling (33 PanQinase). Type of series: biochemical. To be noted: read-out: Inhibitory effect (%) PDK1. Here is the method:
(§1) The kinase inhibition profile of the compounds was determined by testing 96 protein kinases’ activity using a radiometric protein kinase assay (33 PanQinase® Activity Assay, Proqinase, Germany). In brief, 10 µL of non-radioactive ATP solution (in H2O), 25 µL of assay buffer/[γ-33 P]-ATP mixture, 5 µL of 0.1 μM the tested compound in 10% DMSO and 10 µL of enzyme/substrate were mixed in 96-well FlashPlatesTM (Perkin Elmer, Boston, MA, USA). The reaction was conducted at 30 °C for 60 min. To stop the reaction, 50 µL of 2% (v/v) H3PO4 was added into the protein kinase reaction cocktails. After which, with 200 µL 0.9% (w/v) NaCl twice, the incorporation of ^33 Pi (counting of “cpm”) was determined with a microplate scintillation counter (Wallac Microbeta, Boston, MA, USA). All protein kinase assays were performed using a BeckmanCoulter Biomek 2000/SL robotic system (Brea, CA, USA). The residual activity (in %) for each compound was normalized to 100% enzyme activity (untreated control) and background (negative control).

The target in series [4] is T2, ROCK2 (Homo sapiens, UniProt O75116).
T2 construct: purchased ProQinase (33PanQinase Activity Assay)
Kind of series: radiometric kinase profiling (33 PanQinase). Type of series: biochemical. The conditions noted are these: read-out: Inhibitory effect (%) ROCK2. How it is done:
as §1

Series [5] concerns the target T3, EIF2AK1 (Homo sapiens, UniProt Q9BQI3).
T3 construct: purchased Proqinase, Germany
Description: radiometric kinase profiling (33 PanQinase). Type of series: biochemical. To be noted: read-out: Inhibitory effect (%) EIF2AK1. How it is done:
as §1

Series [6] deals with TGFBR2 (Homo sapiens, UniProt P37173). Description: radiometric protein kinase assay, affinity (Kd). Type of series: binding. How it is done:
The binding interaction profile of the compounds for ALK1–6, ACVR2A, ACVR2B, and TGFβR2 was determined by using radiometric protein kinase assay. For each compound, ten different concentrations (from 3 × 10^−6 M to 9 × 10^−11 M) were used in the protein kinase reaction.

Sequence of TGFBR2 (P37173 23-567): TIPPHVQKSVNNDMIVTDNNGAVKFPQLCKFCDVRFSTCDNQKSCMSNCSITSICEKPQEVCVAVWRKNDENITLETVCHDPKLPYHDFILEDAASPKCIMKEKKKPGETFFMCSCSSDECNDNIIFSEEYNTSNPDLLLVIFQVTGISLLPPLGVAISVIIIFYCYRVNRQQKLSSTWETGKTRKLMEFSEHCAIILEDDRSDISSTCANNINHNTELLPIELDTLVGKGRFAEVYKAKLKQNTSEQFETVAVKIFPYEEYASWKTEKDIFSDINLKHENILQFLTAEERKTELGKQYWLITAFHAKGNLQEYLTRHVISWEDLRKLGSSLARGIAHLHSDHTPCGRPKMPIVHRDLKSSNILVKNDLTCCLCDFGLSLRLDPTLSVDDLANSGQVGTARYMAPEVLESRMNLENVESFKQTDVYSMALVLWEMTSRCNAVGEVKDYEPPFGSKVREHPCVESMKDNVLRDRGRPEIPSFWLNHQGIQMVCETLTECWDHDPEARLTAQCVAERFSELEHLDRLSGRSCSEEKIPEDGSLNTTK
T3 sequence (Q9BQI3 whole entry): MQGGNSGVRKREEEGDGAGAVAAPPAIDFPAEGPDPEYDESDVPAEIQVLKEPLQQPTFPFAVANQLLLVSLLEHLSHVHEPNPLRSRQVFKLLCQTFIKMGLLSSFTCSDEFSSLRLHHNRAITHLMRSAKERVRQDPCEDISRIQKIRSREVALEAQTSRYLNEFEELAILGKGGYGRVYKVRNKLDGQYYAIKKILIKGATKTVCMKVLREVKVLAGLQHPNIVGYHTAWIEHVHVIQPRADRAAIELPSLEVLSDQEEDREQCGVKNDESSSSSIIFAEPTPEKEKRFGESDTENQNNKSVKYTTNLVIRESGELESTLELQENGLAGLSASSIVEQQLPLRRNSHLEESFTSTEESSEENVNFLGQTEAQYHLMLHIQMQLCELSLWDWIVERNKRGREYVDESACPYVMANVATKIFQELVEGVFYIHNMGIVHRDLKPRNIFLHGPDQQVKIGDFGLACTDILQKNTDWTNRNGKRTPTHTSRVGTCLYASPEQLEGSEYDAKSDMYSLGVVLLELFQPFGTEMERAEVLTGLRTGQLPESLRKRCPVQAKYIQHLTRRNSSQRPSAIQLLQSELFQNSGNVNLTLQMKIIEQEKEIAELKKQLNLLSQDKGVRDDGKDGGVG
T2 sequence (O75116 whole entry): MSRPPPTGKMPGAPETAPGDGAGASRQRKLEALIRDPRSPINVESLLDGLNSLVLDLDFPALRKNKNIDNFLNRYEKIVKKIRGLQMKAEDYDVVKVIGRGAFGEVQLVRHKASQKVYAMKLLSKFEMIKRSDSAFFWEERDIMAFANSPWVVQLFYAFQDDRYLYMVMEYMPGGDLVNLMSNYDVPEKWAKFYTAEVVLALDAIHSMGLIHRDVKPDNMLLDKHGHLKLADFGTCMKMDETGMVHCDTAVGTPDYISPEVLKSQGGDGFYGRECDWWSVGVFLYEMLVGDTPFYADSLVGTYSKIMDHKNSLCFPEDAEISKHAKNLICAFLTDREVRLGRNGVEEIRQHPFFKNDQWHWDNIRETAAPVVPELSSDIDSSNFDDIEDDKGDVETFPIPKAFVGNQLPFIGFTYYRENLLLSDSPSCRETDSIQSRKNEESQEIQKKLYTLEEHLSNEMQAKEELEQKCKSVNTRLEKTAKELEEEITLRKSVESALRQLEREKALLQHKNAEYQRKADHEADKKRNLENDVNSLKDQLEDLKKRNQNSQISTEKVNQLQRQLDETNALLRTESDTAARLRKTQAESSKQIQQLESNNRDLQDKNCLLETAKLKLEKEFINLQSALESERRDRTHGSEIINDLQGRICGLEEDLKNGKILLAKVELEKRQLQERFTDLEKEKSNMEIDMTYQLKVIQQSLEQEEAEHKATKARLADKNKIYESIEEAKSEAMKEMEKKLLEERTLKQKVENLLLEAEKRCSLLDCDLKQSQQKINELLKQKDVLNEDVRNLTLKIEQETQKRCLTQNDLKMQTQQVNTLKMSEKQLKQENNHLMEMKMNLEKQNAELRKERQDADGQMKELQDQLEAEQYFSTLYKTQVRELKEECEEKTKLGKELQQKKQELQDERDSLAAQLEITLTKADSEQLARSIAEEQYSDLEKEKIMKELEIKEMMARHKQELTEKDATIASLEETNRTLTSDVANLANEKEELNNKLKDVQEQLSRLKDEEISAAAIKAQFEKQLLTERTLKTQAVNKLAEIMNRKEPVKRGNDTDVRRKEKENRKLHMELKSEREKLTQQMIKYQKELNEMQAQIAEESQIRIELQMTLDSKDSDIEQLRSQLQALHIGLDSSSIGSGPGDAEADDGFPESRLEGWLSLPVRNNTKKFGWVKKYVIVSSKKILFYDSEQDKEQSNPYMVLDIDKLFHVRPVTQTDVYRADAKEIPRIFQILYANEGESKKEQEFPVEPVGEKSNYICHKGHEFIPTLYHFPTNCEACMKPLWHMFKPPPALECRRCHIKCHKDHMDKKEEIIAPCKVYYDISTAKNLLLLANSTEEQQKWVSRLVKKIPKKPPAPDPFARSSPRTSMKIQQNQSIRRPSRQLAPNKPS

As to `CNC(=O)c1ccccc1Sc1ccc2c(/C=C/c3ccccn3)n[nH]c2c1` [Axitinib, reference compound], in series [1], the “effect on VEGF-induced DLL4 mRNA expression” value is given as “inhibited” and the “effect on VEGF-induced NR4 A1 mRNA expression” value is “inhibited”. Besides, the “effect on EA.hy926 cell viability (MTS)” value in series [2] was “no significant effects”.
Take `c1ccc2c(-c3cnn4cc(-c5ccc(N6CCNCC6)cc5)cnc34)ccnc2c1` [LDN-193189, reference compound]: the inhibition at 0.1 µM in series [3] was -8.72%; in series [4] it was 13.1%; in series [5] it was -16.3%. Moreover, in series [6], the Kd (usually the free concentration of one partner at which half of the binding sites on the other are occupied at equilibrium, for simple one-to-one binding) was 16 nM. Besides, the “effect on EA.hy926 cell viability (MTS)” value in series [2] was “markedly attenuated”.
With `CN1CCc2cccc(c2)Nc2nccc(n2)N2CCCc3cc(ccc32)C1` [OD16], the “effect on VEGF-induced DLL4 mRNA expression” value in series [1] was “did inhibit”. Also, the inhibition at 0.1 µM in series [3] is -7.16%; in series [4], 42.6%; in series [5], -7.88%. The Kd in series [6] was 380 nM. For the same compound, the “effect on EA.hy926 cell viability (MTS)” value in series [2] was “no significant effects”.
Regarding `CN1CCC(=O)NCCNc2ccn3ncc(c3n2)-c2cccc(c2)C1` [OD29], the “effect on VEGF-induced DLL4 mRNA expression” value in series [1] is listed as “inhibited”. Moreover, the “effect on VEGF-induced NR4 A1 mRNA expression” value in series [1] was “inhibited”. The figures for the inhibition at 0.1 µM in series [3], in series [4] and in series [5] were -1.4%, -0.26% and -0.05%, respectively. For the same compound, in series [6], binding was characterised by a dissociation constant (Kd) of 76 nM. In addition, the “effect on EA.hy926 cell viability (MTS)” value in series [2] is recorded as “no significant effects”.
